These results are taken from PMC4010497, “Synthesis and Evaluation of Fluorine-Substituted Phenyl Acetate Derivatives as Ultra-Short Recovery Sedative/Hypnotic Agents” (PLoS ONE, 2014).

The nature of data set [1]: Octanol:water partition coefficient. Particulars: water buffered with 10 mm Tris (pH 7.4). Type of data set: physicochemical. The protocol:
One mg of each hypnotic was added to 10 ml of water buffered with 10 mm Tris (pH 7.4) and 1 ml of octanol. The mixture was stirred overnight and then centrifuged to fully separate the organic and aqueous phases. The relative hypnotic concentration in each phase (i.e., the partition coefficient) was determined by high-performance liquid chromatography as described for blood.

In data set [2] the test system is mice. The data set is described as follows: animal or person. It is filed as in vivo. As to conditions: mice; for ED50: Mus musculus, IV over 10 s, 95% confidence limits, read-out: HD50 (the source's name); for Duration of LORR: IV 2× HD50, mean ± SD (n = 10); for Onset time: IV, mean ± SD (n = 10). The protocol: All tests were performed during the light period. Groups of mice, rats and rabbits were injected intravenously (lateral tail vein) over 10 s with each dose of test compound, placed in separate boxes to reduce external stimuli and assessed for the loss of righting reflex. Dosing was performed using mg/kg scheme. A set of dose levels was chosen, and depending on whether the loss of righting reflex was observed, extra doses were introduced to provide data for the loss of righting reflex over a narrow dose range to allow potency calculations. From the percentage of mice, rats and rabbits in each group showing loss of righting reflex for ≥30 s, a probit analysis (SAS Institute) was performed to obtain an HD50 for each compound with 95% confidence limits.
Immediately following the injection, the mice, rats and rabbits were tested for loss of righting reflex. […] Once a loss was observed, the interval between the loss of righting reflex and the return to righting reflex was recorded. The anesthetized animals recovered righting reflexes spontaneously. To compare the duration of LORR of each compound at equipotent doses, groups of mice, rats and rabbits were injected with each compound at 2× HD50 over 10 s.
Time to walk was the time required after righting before mice and rabbits walked from the center to the periphery of a 30-cm diameter dise.
The rotarod test was conducted to evaluate the recovery to the motor coordination. Before the LORR test, mice were trained for 2 consecutive days. Trained mice could maintain their balance on rod for more than 2 mins. After the mice could walk from the center to the periphery of a 30-cm diameter dise, they were put on the rotarod. Mice were classified as behavioral recovery when, on being placed on the rod, they could maintain their balance for 20 s. The time to behavioral recovery was the time required after mice walked from the centre to the periphery of a 30-cm diameter disc before they could maintain their balance on rod for 20 s.

For data set [3], the system named is GABAA receptor. In words: GABAA radioligand binding assay ([3H]EBOB). As to conditions: 50 µM compound, 0.5 nM [3H]EBOB, rat frontoparietal cortex. The protocol: All the new compounds were dissolved in 5% DMSO.
Specific binding was determined in the presence of compounds.
Membrane suspensions were thawed and centrifuged in incubation buffer at 10,000×g for 10 min and washed by a similar centrifugation. For displacement studies, membrane suspensions (5 mg original wet wt./ml) were incubated with 0.5 nM [^3H]EBOB ([…], Perkin Elmer Life Sciences, Boston, MA, USA) in the absence or presence of 50 µM of new compounds or reference drug for 2 h at 25°C. Nonspecific binding was determined in the presence of 10 µM Bicuculline. Bicuculline and picrotoxin were frequently used to determine the nonspecific binding when [3H]EBOB as radioligand [17]. Triplicate 1 ml samples were filtered on Whatman GF/B filters under vacuum with a Brandel Harvester and washed with 3×3 ml ice-cold buffer.

Data set [4] concerns mice. In words: in vivo. Particulars: LD50/HD50. Here is the method:
(§1) The LD50 was determined in mice, rats, and rabbits and the TI was calculated as LD50/HD50.

Data set [5] can be described thus: in vivo. Particulars: mouse, in vivo, mice, 95% confidence limits. Here is the method:
as §1

As to `CCN(CC)C(=O)COc1ccc(CC(=O)OCCC(F)(F)F)cc1OC` [Compound 5h, 3,3,3-trifluoropropyl 2-(4-(2-(diethylamino)-2-oxoethoxy)-3-methoxyphenyl)acetate], the “Octanol:Water Partition (Coefficient ± SD)” value in data set [1] is 792±36. In data set [2], the ED50 was determined as 25.6 mg/kg, the “Duration of LORR” value worked out at 69.3 ± 7.8 s and the Onset time came to 7.5 ± 1.2 s. Besides, the “GABAA binding (50 µmol) (Mean ± SD), percentage of inhibition” value in data set [3] was 80.3±7.6%.
As usually defined, the LD50 is the dose expected to kill half of the subjects tested. Compound `CCOc1cc(CC(=O)OC(C)C(F)(F)F)ccc1OCC(=O)N(CC)CC` (stereo not shown) [Compound 5l, 1,1,1-trifluoropropan-2-yl 2-(4-(2-(diethylamino)-2-oxoethoxy)-3-ethoxyphenyl)acetate] showed a TI in data set [4] of 5.1. This compound also displayed a 50% lethal dose (LD50) in data set [5] of 103 mg/kg. Also, the “Octanol:Water Partition (Coefficient ± SD)” value in data set [1] is 2857±400. Also, in data set [2], the ED50 amounted to 20.7 mg/kg, the “Duration of LORR” value amounted to 121.2 ± 11.5 s and the Onset time is 7.3 ± 1.1 s. Also, the “GABAA binding (50 µmol) (Mean ± SD), percentage of inhibition” value in data set [3] is on record as 79.5±10.0%.
Compound `CCCOC(=O)Cc1ccc(OCC(=O)N(CC)CC)c(OC(F)(F)F)c1` [Compound 5b, propyl 2-(4-(2-(diethylamino)-2-oxoethoxy)-3-(trifluoromethoxy)phenyl)acetate] returned a TI in data set [4] of 5.9. This compound also displayed a 50% lethal dose (LD50) in data set [5] (intravenous) of 346 mg/kg. For the same compound, the “Octanol:Water Partition (Coefficient ± SD)” value in data set [1] came to 4745±280. For the same compound, in data set [2], the ED50 was 58.7 mg/kg, the “Duration of LORR” value was 162.6 ± 15.7 s and the Onset time is 32.4 ± 5.6 s. For the same compound, the “GABAA binding (50 µmol) (Mean ± SD), percentage of inhibition” value in data set [3] was determined as 73.9±5.3%.
`CCN(CC)C(=O)COc1ccc(CC(=O)OCC(F)(F)F)cc1OC` [Compound 5g, 2,2,2-trifluoroethyl 2-(4-(2-(diethylamino)-2-oxoethoxy)-3-methoxyphenyl)acetate] registered a TI in data set [4] of 6.1. In addition, in data set [5], the LD50 was 363 mg/kg. Besides, in data set [1], the “Octanol:Water Partition (Coefficient ± SD)” value was 597±68. Besides, in data set [2], the ED50 worked out at 59.6 mg/kg, the “Duration of LORR” value came out at 44.8 ± 2.1 s and the Onset time came out at 6.2 ± 0.4 s. Further, the Time to walk in data set [2] (2× HD50) was 22.5 ± 6.9 s. Also, the “time to behavioral recovery” value in data set [2] (2× HD50, rotarod) is 46.5 ± 8.5 s. Also, the “GABAA binding (50 µmol) (Mean ± SD), percentage of inhibition” value in data set [3] turned out to be 87.2±5.7%.
For the compound `CCN(CC)C(=O)COc1ccc(CC(=O)OCC(F)(F)F)cc1OC(F)(F)F` [Compound 5c, 2,2,2-trifluoroethyl 2-(4-(2-(diethylamino)-2-oxoethoxy)-3-(trifluoromethoxy)phenyl)acetate], the “Octanol:Water Partition (Coefficient ± SD)” value in data set [1] came to 3427±130. The “anesthetic potency (in words)” value in data set [2] is listed as “poor anesthetic potency”. Also, the “GABAA binding (50 µmol) (Mean ± SD), percentage of inhibition” value in data set [3] came to 30.4±3.5%.
In the case of `CCCOC(=O)Cc1ccc(OCC(=O)N(CC)CC)c(OCC(F)(F)F)c1` [Compound 5e, propyl 2-(4-(2-(diethylamino)-2-oxoethoxy)-3-(2,2,2-trifluoroethoxy)phenyl)acetate], in data set [4], the TI came out at 5.7. In data set [5], this compound had an LD50 of 250 mg/kg. In addition, in data set [1], the “Octanol:Water Partition (Coefficient ± SD)” value came out at 872±65. In data set [2], the ED50 came to 43.8 mg/kg, the “Duration of LORR” value stood at 224.6 ± 19.5 s and the Onset time worked out at 23.4 ± 4.6 s. In addition, the “GABAA binding (50 µmol) (Mean ± SD), percentage of inhibition” value in data set [3] was determined as 72.2±6.5%.
With `CCN(CC)C(=O)COc1ccc(CC(=O)OC(C)C(F)(F)F)cc1OC` (stereo not shown) [Compound 5i, 1,1,1-trifluoropropan-2-yl 2-(4-(2-(diethylamino)-2-oxoethoxy)-3-methoxyphenyl)acetate], the TI in data set [4] was determined as 5.5. In data set [5], this compound registered a 50% lethal dose (LD50) of 112 mg/kg. Besides, in data set [1], the “Octanol:Water Partition (Coefficient ± SD)” value was 1857±124. In data set [2], the ED50 was determined as 21.1 mg/kg, the “Duration of LORR” value was found to be 80.1 ± 9.3 s and the Onset time came to 7.2 ± 0.5 s. The “GABAA binding (50 µmol) (Mean ± SD), percentage of inhibition” value in data set [3] turned out to be 81.6±10.5%.
`CCOC(=O)Cc1ccc(OCC(=O)N(CC)CC)c(OC(F)(F)F)c1` [Compound 5a, Ethyl 2-(4-(2-(diethylamino)-2-oxoethoxy)-3-(trifluoromethoxy)phenyl)acetate] displayed a TI in data set [4] of 6.1. Also, in data set [5], the LD50 came to 442 mg/kg. Besides, the “Octanol:Water Partition (Coefficient ± SD)” value in data set [1] turned out to be 2157±185. Moreover, in data set [2], the ED50 came out at 72.5 mg/kg, the “Duration of LORR” value is 155.2 ± 10.3 s and the Onset time is 35.1 ± 6.8 s. Also, the “GABAA binding (50 µmol) (Mean ± SD), percentage of inhibition” value in data set [3] was 69.1±4.2%.
With `CCOc1cc(CC(=O)OCCC(F)(F)F)ccc1OCC(=O)N(CC)CC` [Compound 5k, 3,3,3-trifluoropropyl 2-(4-(2-(diethylamino)-2-oxoethoxy)-3-ethoxyphenyl)acetate], the “Octanol:Water Partition (Coefficient ± SD)” value in data set [1] is given as 667±102. Also, in data set [2], the ED50 was 29.2 mg/kg, the “Duration of LORR” value stood at 65.6 ± 6.8 s and the Onset time stood at 7.6 ± 0.9 s. Also, the “GABAA binding (50 µmol) (Mean ± SD), percentage of inhibition” value in data set [3] is recorded as 74.0±6.3%.
`CCOC(=O)Cc1ccc(OCC(=O)N(CC)CC)c(OCC(F)(F)F)c1` [Compound 5d, ethyl 2-(4-(2-(diethylamino)-2-oxoethoxy)-3-(2,2,2-trifluoroethoxy)phenyl)acetate] gave a TI in data set [4] of 5.5. This compound also returned a 50% lethal dose (LD50) in data set [5] of 260 mg/kg. In data set [1], the “Octanol:Water Partition (Coefficient ± SD)” value came out at 778±77. In data set [2], the ED50 stood at 47.4 mg/kg, the “Duration of LORR” value stood at 181.9 ± 14.3 s and the Onset time came out at 25.2 ± 3.8 s. Besides, the “GABAA binding (50 µmol) (Mean ± SD), percentage of inhibition” value in data set [3] is on record as 67.7±3.2%.
As for `CCN(CC)C(=O)COc1ccc(CC(=O)OCC(F)(F)F)cc1OCC(F)(F)F` [Compound 5f, 2,2,2-trifluoroethyl 2-(4-(2-(diethylamino)-2-oxoethoxy)-3-(2,2,2-trifluoroethoxy)phenyl)acetate], the “Octanol:Water Partition (Coefficient ± SD)” value in data set [1] turned out to be 1452±156. For the same compound, in data set [2], the “anesthetic potency (in words)” value is “poor anesthetic potency”. Moreover, the “GABAA binding (50 µmol) (Mean ± SD), percentage of inhibition” value in data set [3] was found to be 45.4±4.3%.
